Experimental data reported in patent publication US20050065436A1, “Rapid and non-invasive optical detection of internal bleeding” (priority 2003, published 2005).

Test: NIR absorption and fluorescence spectra of indocyanine green
Format: physicochemical
Source text: Many NIR fluorescence compounds are potential candidates for the present application. One of examples, indocyanine green (ICG), because of its low toxicity, has been used in many clinical applications. Indocyanine green, molecular weight 775, is a tricarbocyanine type of green dye. FIG. 2 and FIG. 3 show the NIR absorption, 650-850 nm, and NIR fluorescence spectra, 650-900 nm, of ICG, respectively. ICG has little absorption in the visible light. However, it is easily excited by an NIR light source with high quantum efficiency. Diode laser light sources with a wavelength between […] is suitable for ICG excitation. The fluorescent peak has a large red shifted relatively to the excitation wavelength. The fluorescence peak at 810 nm is within the NIR window for tissue optics. Due to ICG has a very large fluorescent quantum yield and a distinct peak at 810 nm, a sensitivity of 0.5 μg/ml can be achieved easily. FIG. 3(a), (b), and (c) show the fluorescence spectra of ICG in blood samples with various concentration between 0.5-500 μg/ml

- NIR fluorescence spectra (FIG. 3): 650-900 nm
- fluorescence peak (FIG. 3, concentrations 0.5-500 μg/ml): 810 nm
- NIR absorption (absorption spectrum, FIG. 2): 650-850 nm
Structure (SMILES): CC1(C)C(/C=C/C=C/C=C/C=C2\N(CCCCS(=O)(=O)O)c3ccc4ccccc4c3C2(C)C)=[N+](CCCCS(=O)(=O)[O-])c2ccc3ccccc3c21 [ICG, Indocyanine green]
